Reference: patent US20250073229A1, “PHARMACEUTICAL COMPOSITION FOR PREVENTING AND/OR TREATING HEART FAILURE” (OSAKA UNIVERSITY, priority 2022, published 2025)

Test system: left ventricular pressure-loaded model mice (TAC mice)
Assay: Echocardiography in transverse aortic constriction (TAC) left ventricular pressure-loaded model mice
Assay type: in vivo, C57BL/6 mice
Method: Ten-week-old male C57BL/6 mice (about 25 g) were treated with transverse aortic constriction (TAC) to produce left ventricular pressure-loaded model mice (TAC mice). At 2 weeks after TAC (hypertrophic phase), an osmotic mini-pump (Alzet2006) was implanted subcutaneously, and continuous subcutaneous administration of Compound 011 or a vehicle (a solution obtained by mixing dimethyl sulfoxide and polyethylene glycol 300 in a weight ratio of 1:1) was started at a dose of 5 mg/kg/day. The left ventricular wall thickness (IVS), left ventricular end-diastolic diameter (LVDd), left ventricular fractional shortening (LVFS), and left ventricular ejection fraction (LVEF) were observed and evaluated by echocardiography every two weeks after the start of administration (Compound 011 group: 11 animals; vehicle group: 9 animals). In advance, Compound 011 was administered to non-TAC-treated mice at 5 mg/kg/day with an osmotic mini-pump (Alzet2006) in the same manner, and the blood level (tail vein blood sample) was measured at 2, 4, and 6 weeks after administration and the body blood pressure was measured at 2 weeks after administration to thus confirm that the dose of 5 mg/kg/day could be used for TAC mice.

[1] = 8 weeks after TAC (6 weeks after start of administration), 5 mg/kg/day continuous subcutaneous by osmotic mini-pump, p<0.05 vs. vehicle
[2] = 8 weeks after TAC, 5 mg/kg/day continuous subcutaneous

O=C(O)c1cnc(N2CCN(c3noc4cccc(C(F)(F)F)c34)CC2)c(Cl)c1 [Compound 011, 5-Chloro-6-(4-(4-(trifluoromethyl)benzo[d]isoxazol-3-yl)piperazin-1-yl)nicotinic acid]
progressive deterioration of LVFS and LVEF (5 mg/kg/day continuous subcutaneous, vs. vehicle group): significantly suppressed
LVEF (left ventricular ejection fraction) [1]: 80.2±2.7%
left ventricular fractional shortening (LVFS) at 8 weeks after TAC [1]: 48.8±2.6%
interventricular septum (IVS), difference vs. vehicle group [2]: no significant difference
left ventricular end-diastolic diameter (LVDd), difference vs. vehicle group [2]: no significant difference
